Assay results from ChEMBL document CHEMBL5370566, “Flindissone, a Limonoid Isolated from Trichilia prieuriana, Is an LXR Agonist” (J Nat Prod, 2023).
Blank lines part the entries; values can stand above or below the molecule they belong to. Calls of active or inactive are those of the source. The rule behind the calls is not given here.

Assays:
[1] = target: T1, Liver X receptor (Homo sapiens) (UniProt Q13133+P55055); experiment: Agonist activity at LXR in human THP-1 cells assessed as increase of ABCA1 protein expression level at 1 to 10 uM by Western blot analysis; assay type: cell-based; details: filed as agonist, dose 1-10 µM
[2] = system: HepG2; experiment: Effect on LDLR mRNA expression level in human HepG2 cells at 1 to 10 uM by RT-qPCR analysis; assay type: functional, cell-based; details: dose 1-10 µM
[3] = target: T2, Liver X receptor (Homo sapiens, UniProt Q13133+P55055); experiment: Agonist activity at LXR in human HepG2 cells assessed as increase in SREBF1 mRNA expression level at 1 to 10 uM measured after 72 hrs by RT-qPCR analysis; assay type: toxicity, cell-based; details: hepg2, 72 h, dose 1-10 µM
T2 sequence (Q13133 whole entry): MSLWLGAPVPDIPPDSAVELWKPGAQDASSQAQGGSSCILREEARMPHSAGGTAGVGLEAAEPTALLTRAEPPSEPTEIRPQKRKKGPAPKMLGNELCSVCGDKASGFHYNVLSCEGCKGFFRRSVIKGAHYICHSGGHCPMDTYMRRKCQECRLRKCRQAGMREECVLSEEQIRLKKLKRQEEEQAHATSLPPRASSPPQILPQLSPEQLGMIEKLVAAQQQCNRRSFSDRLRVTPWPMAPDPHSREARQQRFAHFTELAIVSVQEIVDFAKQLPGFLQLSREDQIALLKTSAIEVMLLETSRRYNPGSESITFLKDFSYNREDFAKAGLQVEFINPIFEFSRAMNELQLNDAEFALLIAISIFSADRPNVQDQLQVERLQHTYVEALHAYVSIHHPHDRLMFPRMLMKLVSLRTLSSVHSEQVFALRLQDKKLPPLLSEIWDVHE
T2 sequence (P55055 whole entry): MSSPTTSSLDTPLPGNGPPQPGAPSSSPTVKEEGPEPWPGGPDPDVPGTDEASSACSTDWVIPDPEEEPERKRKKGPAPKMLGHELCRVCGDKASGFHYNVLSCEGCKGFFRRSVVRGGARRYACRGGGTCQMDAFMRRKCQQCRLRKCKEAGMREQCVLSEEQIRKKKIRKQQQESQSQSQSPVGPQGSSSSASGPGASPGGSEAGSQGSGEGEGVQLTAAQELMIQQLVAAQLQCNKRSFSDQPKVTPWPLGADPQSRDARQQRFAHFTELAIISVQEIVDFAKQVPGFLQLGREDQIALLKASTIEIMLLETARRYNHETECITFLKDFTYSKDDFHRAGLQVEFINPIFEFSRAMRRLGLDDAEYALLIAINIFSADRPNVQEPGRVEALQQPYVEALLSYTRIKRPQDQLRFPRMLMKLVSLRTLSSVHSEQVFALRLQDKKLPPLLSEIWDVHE

[4] = target: T3, Oxysterols receptor LXR-alpha (Homo sapiens, UniProt Q13133); experiment: Agonist activity at full length human LXRalpha transfected in HEK293T cells co-expressing ABCA1 assessed as increase in luciferase activity measured after 18 hrs by reporter gene assay; assay type: cell-based
T3 sequence (Q13133 whole entry): T2 sequence (Q13133 whole entry)

[5] = target: T4, Oxysterols receptor LXR-beta (Homo sapiens, UniProt P55055); experiment: Agonist activity at full length human LXRbeta transfected in HEK293T cells co-expressing ABCA1 assessed as increase in luciferase activity measured after 18 hrs by luciferase reporter gene assay; assay type: cell-based
T4 sequence (P55055 whole entry): T2 sequence (P55055 whole entry)

[6] = target: T2, Liver X receptor; experiment: Agonist activity at LXR in human HepG2 cells assessed as increase in SREBF1 protein expression level at 1 to 10 uM measured after 72 hrs by Western blot analysis; assay type: toxicity, cell-based; details: hepg2, 72 h, dose 1-10 µM
[7] = target: T1, Liver X receptor (Homo sapiens); experiment: Agonist activity at LXR in human THP-1 cells assessed as increase of ABCG1 mRNA expression level at 1 to 10 uM by RT-qPCR analysis; assay type: cell-based; details: filed as agonist, dose 1-10 µM
[8] = target: T5, Oxysterols receptor LXR-alpha (Homo sapiens) (UniProt Q13133); experiment: Agonist activity at human LXRalpha-LBD transfected in HEK293T cells co-expressing Gal4-DBD assessed as increase in luciferase activity measured after 18 hrs by reporter gene assay; assay type: cell-based; details: filed as agonist, dose 1-10 µM
T5 sequence (whole entry): T2 sequence (Q13133 whole entry)

[9] = target: T6, Oxysterols receptor LXR-beta (Homo sapiens) (UniProt P55055); experiment: Agonist activity at human LXRbeta-LBD transfected in HEK293T cells co-expressing Gal4-DBD assessed as increase in luciferase activity measured after 18 hrs by reporter gene assay; assay type: cell-based; details: filed as agonist, dose 1-10 µM
T6 sequence (whole entry): T2 sequence (P55055 whole entry)

[10] = system: HEK-293T; experiment: Cytotoxicity against HEK293T cells transfected with LXRalpha assessed as cell viability at >10 uM measured after 18 hrs by luciferase reporter gene assay; assay type: toxicity, cell-based; details: human
[11] = species on record: Homo sapiens; experiment: Activation at RXR (unknown origin)
[12] = target: T7, Bile acid receptor (Homo sapiens) (UniProt Q96RI1); experiment: Activation at FXR (unknown origin)
T7 sequence (whole entry): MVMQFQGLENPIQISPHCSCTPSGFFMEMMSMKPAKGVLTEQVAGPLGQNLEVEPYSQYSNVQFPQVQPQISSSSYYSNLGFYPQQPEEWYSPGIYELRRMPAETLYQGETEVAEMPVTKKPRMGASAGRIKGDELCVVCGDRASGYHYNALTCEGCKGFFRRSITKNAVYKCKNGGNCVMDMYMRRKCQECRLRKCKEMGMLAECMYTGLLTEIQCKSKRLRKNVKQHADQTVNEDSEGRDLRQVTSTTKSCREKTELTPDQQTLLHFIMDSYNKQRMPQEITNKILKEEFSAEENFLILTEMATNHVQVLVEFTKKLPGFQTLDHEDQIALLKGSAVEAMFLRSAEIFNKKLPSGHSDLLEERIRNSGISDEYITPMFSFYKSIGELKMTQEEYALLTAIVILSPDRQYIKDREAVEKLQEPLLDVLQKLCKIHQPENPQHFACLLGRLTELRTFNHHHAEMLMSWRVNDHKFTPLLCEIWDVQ

[13] = target: T8, Nuclear receptor ROR-gamma (Homo sapiens) (UniProt P51449); experiment: Activation at RORgamma (unknown origin)
T8 sequence (whole entry): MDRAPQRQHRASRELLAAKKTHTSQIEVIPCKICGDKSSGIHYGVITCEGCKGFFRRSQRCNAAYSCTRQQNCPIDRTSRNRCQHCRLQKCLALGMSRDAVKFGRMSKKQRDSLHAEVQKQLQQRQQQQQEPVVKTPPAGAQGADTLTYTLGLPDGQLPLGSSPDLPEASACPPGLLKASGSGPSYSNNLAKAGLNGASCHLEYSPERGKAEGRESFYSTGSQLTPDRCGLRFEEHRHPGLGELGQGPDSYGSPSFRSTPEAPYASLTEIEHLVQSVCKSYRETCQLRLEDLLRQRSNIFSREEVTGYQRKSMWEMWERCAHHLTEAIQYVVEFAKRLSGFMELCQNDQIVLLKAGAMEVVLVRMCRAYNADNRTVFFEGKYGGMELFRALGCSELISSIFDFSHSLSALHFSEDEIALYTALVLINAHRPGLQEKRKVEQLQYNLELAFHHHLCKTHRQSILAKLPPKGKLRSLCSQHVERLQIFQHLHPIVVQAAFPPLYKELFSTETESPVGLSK

[14] = target: T1, Liver X receptor (Homo sapiens); experiment: Agonist activity at LXR in cholesterol treated human THP-1 cells assessed as stimulation of plasma mediated cholesterol efflux pre incubated for 24 hrs followed by plasma addition measured after 6 hrs by liquid scintillation counting analysis; assay type: cell-based; details: filed as agonist, dose 1-10 µM, time 30.0 hrs
[15] = target: T1, Liver X receptor (Homo sapiens); experiment: Agonist activity at LXR in human THP-1 cells assessed as increase of ABCA1 mRNA expression level at 1 to 10 uM by RT-qPCR analysis; assay type: cell-based; details: filed as agonist, dose 1-10 µM
[16] = target: T1, Liver X receptor (Homo sapiens); experiment: Agonist activity at LXR in cholesterol treated human THP-1 cells assessed as stimulation of plasma mediated cholesterol efflux at 5 uM pre incubated for 24 hrs followed by plasma addition measured after 6 hrs by liquid scintillation counting analysis; assay type: cell-based; details: filed as agonist
[17] = target: T1, Liver X receptor (Homo sapiens); experiment: Agonist activity at LXR in human HepG2 cells assessed as increase of IDOL mRNA expression level at 10 uM by RT-qPCR analysis; assay type: cell-based; details: filed as agonist
[18] = target: T2, Liver X receptor; experiment: Agonist activity at LXR in human HepG2 cells assessed as reduction in SREBP1c proteolytic processing measured after 72 hrs by Western blot analysis; assay type: toxicity, cell-based; details: hepg2, 72 h, dose 1-10 µM
[19] = target: T2, Liver X receptor; experiment: Agonist activity at LXR in human HepG2 cells assessed as reduction in HMGCR mRNA expression measured after 72 hrs by RT-qPCR analysis; assay type: toxicity, cell-based; details: hepg2, 72 h, dose 1-10 µM
[20] = system: HepG2; experiment: Effect on LDLR mRNA expression level in human HepG2 cells at 1 uM by RT-qPCR analysis; assay type: functional, cell-based
[21] = target: T2, Liver X receptor; experiment: Agonist activity at LXR in human HepG2 cells assessed as increase in cellular lipid content at 1 uM measured after 72 hrs by Oil Red O staining based assay; assay type: toxicity, cell-based; details: hepg2, 72 h
[22] = system: HepG2; experiment: Effect on LDLR mRNA expression level in human HepG2 cells at 5 uM by RT-qPCR analysis; assay type: functional, cell-based
[23] = target: T2, Liver X receptor; experiment: Agonist activity at LXR in human HepG2 cells assessed as reduction in SREBP1c proteolytic processing upto 10 uM measured after 72 hrs by Western blot analysis; assay type: toxicity, cell-based; details: hepg2, 72 h
[24] = target: T2, Liver X receptor; experiment: Agonist activity at LXR in human HepG2 cells assessed as reduction in HMGCR mRNA expression upto 10 uM measured after 72 hrs by RT-qPCR analysis; assay type: toxicity, cell-based; details: hepg2, 72 h

Activity [1]: Active
EC50 [4]: 1600 nM
EC50 [5]: 5300 nM
Activity [7]: Active
Activity [8]: Dose-Dependent Effect
Activity [9]: Dose-Dependent Effect
Activity [11]: inactive
Activity [12]: inactive
Activity [13]: inactive
Activity [14]: Active
Activity [15]: Active
Activity [16]: Active
Activity [17]: Active
Structure (SMILES): CC(C)=C[C@@H]1C[C@@H]([C@@H]2CC[C@]3(C)C4=CC[C@H]5C(C)(C)C(=O)CC[C@]5(C)[C@H]4CC[C@@]23C)[C@H](O)O1
Activity [2]: inactive
Activity [3]: Not Active
Activity [6]: Not Active
Activity [10]: Toxic
Activity [18]: Dose-Dependent Effect
Activity [19]: Dose-Dependent Effect

Structure (SMILES): O=C(O)Cc1cccc(OCCCN(Cc2cccc(C(F)(F)F)c2Cl)CC(c2ccccc2)c2ccccc2)c1
Activity [20]: inactive
Activity [21]: Toxic

Structure (SMILES): CC(C)CC[C@@H](O)[C@@H](C)[C@H]1CC[C@H]2[C@@H]3CC=C4C[C@@H](O)CC[C@]4(C)[C@H]3CC[C@]12C [22(R)-HYDROXYCHOLESTEROL]
Activity [22]: inactive
EC50 [4]: 1200 nM
EC50 [5]: 1500 nM
Activity [23]: Not Active
Activity [24]: Active
